Measured values: the supplement of paper PMC8967900

These compounds were tested on MHH-CALL-2 (assay: selective drug sensitivity score (sDSS, relative to normal bone marrow) (sDSS (score)); higher = more potent and effective on the cell line relative to normal bone marrow cells). Details: 72 h.
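Also: ALL cell lines in 384-well plates, five doses spanning 10,000-fold, each plate scaled between vehicle and 100 µmol/L benzalkonium chloride controls, sDSS an adapted area-under-curve metric.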

SMILES	selective drug sensitivity score
CCOC(=O)CCNc1cc(N2CCc3ccccc3CC2)nc(-c2ccccn2)n1 [GSK-J4] (top concentration 100000 nM)	-7.18
Cc1cc(Nc2cc(CN3CCOCC3)c3nc(C)c(Cc4ccc(Cl)cc4F)n3n2)n[nH]1 [Gandotinib] (top concentration 10000 nM)	7.48
NC(=O)NO [Hydroxyurea] (top concentration 1000000 nM)	4.56
Cc1ccc(NC(=O)c2ccc(CN3CCN(C)CC3)cc2)cc1Nc1nccc(-c2cccnc2)n1 [Imatinib] (top concentration 10000 nM)	0.16
CC(C)NC[C@@H](C(=O)N1CCN(c2ncnc3c2[C@H](C)C[C@H]3O)CC1)c1ccc(Cl)cc1 [Ipatasertib] (top concentration 10000 nM)	4.7
CCC(C)n1ncn(-c2ccc(N3CCN(c4ccc(OCC5COC(Cn6cncn6)(c6ccc(Cl)cc6Cl)O5)cc4)CC3)cc2)c1=O (stereo not given) [Itraconazole] (top concentration 5000 nM)	5.48
Cc1sc2c(c1C)C(c1ccc(Cl)cc1)=N[C@@H](CC(=O)OC(C)(C)C)c1nnc(C)n1-2 [JQ1] (top concentration 10000 nM)	9.62
CCNC(=O)c1noc(-c2cc(C(C)C)c(O)cc2O)c1-c1ccc(CN2CCOCC2)cc1 [Luminespib] (top concentration 1000 nM)	-3.9
O=C(c1cccc(Cl)c1F)N1CCN(Cc2cccc(Nc3nccs3)n2)CC1 [MK-8745] (top concentration 10000 nM)	12.2
Cc1ccc(NC(=O)c2ccc(CN3CCN(C)CC3)cc2)cc1Nc1nc(-c2cccnc2)cs1 [Masitinib] (top concentration 10000 nM)	-1.68
CCN(CC)CCCC(C)Nc1c2ccc(Cl)cc2nc2ccc(OC)cc12 (stereo not given) [Mepacrine] (top concentration 50000 nM)	-5.6
COc1ccc(-c2ccc3ncc4c(c3c2)n(-c2ccc(N3CCNCC3)c(C(F)(F)F)c2)c(=O)n4C)cn1 [NVP-BGT226] (top concentration 1000 nM)	3.92
COc1nc(N)nc2c1ncn2[C@@H]1O[C@H](CO)[C@@H](O)[C@@H]1O [Nelarabine] (top concentration 10000 nM)	-4.22
Cc1cn(-c2cc(NC(=O)c3ccc(C)c(Nc4nccc(-c5cccnc5)n4)c3)cc(C(F)(F)F)c2)cn1 [Nilotinib] (top concentration 10000 nM)	8.9
NC(=O)c1cccc2cn(-c3ccc(C4CCCNC4)cc3)nc12 (stereo not given) [Niraparib] (top concentration 10000 nM)	3.78
COc1ccc(C[C@H](NC(=O)[C@H](C)NC(=O)CN2CCOCC2)C(=O)N[C@@H](Cc2ccccc2)C(=O)[C@@]2(C)CO2)cc1 [ONX-0914] (top concentration 10000 nM)	0.5
CC(=O)c1cnc2ccc(-c3cc(Cl)c(O)c(Cl)c3)nc2c1N[C@H]1CC[C@H](CN(C)C)CC1 [OTS167] (top concentration 1000 nM)	3.18
COC(=O)C[C@](O)(CCCC(C)(C)O)C(=O)O[C@@H]1C(OC)=C[C@]23CCCN2CCc2cc4c(cc2[C@H]13)OCO4 [Omacetaxine] (top concentration 10000 nM)	3.82

What follows are compounds tested on MHH-CALL-4 in the same assay as above. Details: 72 h.

SMILES	selective drug sensitivity score
CCOC(=O)CCNc1cc(N2CCc3ccccc3CC2)nc(-c2ccccn2)n1 [GSK-J4] (top concentration 100000 nM)	-8.98
Cc1cc(Nc2cc(CN3CCOCC3)c3nc(C)c(Cc4ccc(Cl)cc4F)n3n2)n[nH]1 [Gandotinib] (top concentration 10000 nM)	4.78
NC(=O)NO [Hydroxyurea] (top concentration 1000000 nM)	-1.04
Cc1ccc(NC(=O)c2ccc(CN3CCN(C)CC3)cc2)cc1Nc1nccc(-c2cccnc2)n1 [Imatinib] (top concentration 10000 nM)	-0.44
CC(C)NC[C@@H](C(=O)N1CCN(c2ncnc3c2[C@H](C)C[C@H]3O)CC1)c1ccc(Cl)cc1 [Ipatasertib] (top concentration 10000 nM)	4.5
CCC(C)n1ncn(-c2ccc(N3CCN(c4ccc(OCC5COC(Cn6cncn6)(c6ccc(Cl)cc6Cl)O5)cc4)CC3)cc2)c1=O (stereo not given) [Itraconazole] (top concentration 5000 nM)	-0.12
Cc1sc2c(c1C)C(c1ccc(Cl)cc1)=N[C@@H](CC(=O)OC(C)(C)C)c1nnc(C)n1-2 [JQ1] (top concentration 10000 nM)	8.52
CCNC(=O)c1noc(-c2cc(C(C)C)c(O)cc2O)c1-c1ccc(CN2CCOCC2)cc1 [Luminespib] (top concentration 1000 nM)	1.7
O=C(c1cccc(Cl)c1F)N1CCN(Cc2cccc(Nc3nccs3)n2)CC1 [MK-8745] (top concentration 10000 nM)	4.5
Cc1ccc(NC(=O)c2ccc(CN3CCN(C)CC3)cc2)cc1Nc1nc(-c2cccnc2)cs1 [Masitinib] (top concentration 10000 nM)	-4.38
CCN(CC)CCCC(C)Nc1c2ccc(Cl)cc2nc2ccc(OC)cc12 (stereo not given) [Mepacrine] (top concentration 50000 nM)	-8.4
COc1ccc(-c2ccc3ncc4c(c3c2)n(-c2ccc(N3CCNCC3)c(C(F)(F)F)c2)c(=O)n4C)cn1 [NVP-BGT226] (top concentration 1000 nM)	2.32
COc1nc(N)nc2c1ncn2[C@@H]1O[C@H](CO)[C@@H](O)[C@@H]1O [Nelarabine] (top concentration 10000 nM)	-3.12
Cc1cn(-c2cc(NC(=O)c3ccc(C)c(Nc4nccc(-c5cccnc5)n4)c3)cc(C(F)(F)F)c2)cn1 [Nilotinib] (top concentration 10000 nM)	2
NC(=O)c1cccc2cn(-c3ccc(C4CCCNC4)cc3)nc12 (stereo not given) [Niraparib] (top concentration 10000 nM)	4.58
COc1ccc(C[C@H](NC(=O)[C@H](C)NC(=O)CN2CCOCC2)C(=O)N[C@@H](Cc2ccccc2)C(=O)[C@@]2(C)CO2)cc1 [ONX-0914] (top concentration 10000 nM)	2.9
CC(=O)c1cnc2ccc(-c3cc(Cl)c(O)c(Cl)c3)nc2c1N[C@H]1CC[C@H](CN(C)C)CC1 [OTS167] (top concentration 1000 nM)	2.58
COC(=O)C[C@](O)(CCCC(C)(C)O)C(=O)O[C@@H]1C(OC)=C[C@]23CCCN2CCc2cc4c(cc2[C@H]13)OCO4 [Omacetaxine] (top concentration 10000 nM)	3.52

Each compound was assayed on MN-60 in the same assay as above. Details: 72 h.

SMILES	selective drug sensitivity score
CCOC(=O)CCNc1cc(N2CCc3ccccc3CC2)nc(-c2ccccn2)n1 [GSK-J4] (top concentration 100000 nM)	-6.58
Cc1cc(Nc2cc(CN3CCOCC3)c3nc(C)c(Cc4ccc(Cl)cc4F)n3n2)n[nH]1 [Gandotinib] (top concentration 10000 nM)	-3.22
NC(=O)NO [Hydroxyurea] (top concentration 1000000 nM)	-0.04
Cc1ccc(NC(=O)c2ccc(CN3CCN(C)CC3)cc2)cc1Nc1nccc(-c2cccnc2)n1 [Imatinib] (top concentration 10000 nM)	-0.44
CC(C)NC[C@@H](C(=O)N1CCN(c2ncnc3c2[C@H](C)C[C@H]3O)CC1)c1ccc(Cl)cc1 [Ipatasertib] (top concentration 10000 nM)	-1.8
CCC(C)n1ncn(-c2ccc(N3CCN(c4ccc(OCC5COC(Cn6cncn6)(c6ccc(Cl)cc6Cl)O5)cc4)CC3)cc2)c1=O (stereo not given) [Itraconazole] (top concentration 5000 nM)	-2.42
Cc1sc2c(c1C)C(c1ccc(Cl)cc1)=N[C@@H](CC(=O)OC(C)(C)C)c1nnc(C)n1-2 [JQ1] (top concentration 10000 nM)	6.62
CCNC(=O)c1noc(-c2cc(C(C)C)c(O)cc2O)c1-c1ccc(CN2CCOCC2)cc1 [Luminespib] (top concentration 1000 nM)	-4.6
O=C(c1cccc(Cl)c1F)N1CCN(Cc2cccc(Nc3nccs3)n2)CC1 [MK-8745] (top concentration 10000 nM)	1.6
